How the values were obtained:
murine model of sepsis = test system: murine model of sepsis; set-up: method as in PMID 18937852; conditions: within 4 h of LPS injection ref 26; cited from earlier work
[1] = rapidly degraded in vivo by adenosine deaminase; no reference given; cited from earlier work
human monocytes = assay: PMA-stimulated TNF-α production by human monocytes; assay type: cell-based
rat A2aR (rA2aR) = rat A2aR (rA2aR) (Rattus norvegicus, UniProt P30543); assay: cAMP assay in PC-12 cells (endogenous rat A2aR); conditions: A2bR antagonist pre-incubated 15 min
rat A2aR (rA2aR), sequence (P30543 whole entry): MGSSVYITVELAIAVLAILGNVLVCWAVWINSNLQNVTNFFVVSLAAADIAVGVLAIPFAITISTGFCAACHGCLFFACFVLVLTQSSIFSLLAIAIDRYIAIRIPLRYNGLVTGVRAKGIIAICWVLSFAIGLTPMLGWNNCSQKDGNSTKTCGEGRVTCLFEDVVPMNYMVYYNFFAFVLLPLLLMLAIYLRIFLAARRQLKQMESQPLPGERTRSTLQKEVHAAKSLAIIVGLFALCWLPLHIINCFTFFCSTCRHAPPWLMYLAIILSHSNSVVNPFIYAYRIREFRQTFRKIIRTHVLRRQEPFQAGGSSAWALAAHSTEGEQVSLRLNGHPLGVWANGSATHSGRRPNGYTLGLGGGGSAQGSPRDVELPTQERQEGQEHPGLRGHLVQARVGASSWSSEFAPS

COC(=O)N1CCC(CC#Cc2nc(N)c3ncn([C@@H]4O[C@H](C(=O)NC5CC5)[C@@H](O)[C@H]4O)c3n2)CC1 [ATL313]
circulating plasma levels of TNF-α, MIP-1α, MCP-1 (murine model of sepsis): decreases | plasma level of IL-10 (murine model of sepsis): increases

Nc1ncnc2c1ncn2[C@@H]1O[C@H](CO)[C@@H](O)[C@H]1O [adenosine]
half-life in vivo [1]: less than 10 seconds

CCNC(=O)[C@H]1O[C@@H](n2cnc3c(N)ncnc32)[C@H](O)[C@@H]1O [NECA, 5′-N-Ethylcarboxamidoadenosine]
effect on PMA-stimulated TNF-α production (human monocytes; human monocytes/macrophages, NECA 1 μM, PMA 5 ng/ml, 12 h): inhibited

CCCn1c(=O)c2[nH]c(-c3ccc(OCC(=O)Nc4ccc(C#N)cc4)cc3)nc2n(CCC)c1=O [MRS 1754, N-(4-Cyanophenyl)-2-[4-(2,3,6,7-tetrahydro-2,6-dioxo-1,3-dipropyl-1H-purin-8-yl)phenoxy]-acetamide]
effect on adenosine- or adenosine plus AEA061-induced cAMP production (rat A2aR (rA2aR)): failed to inhibit

Nc1nc(NCCc2ccc(O)cc2)nc2nc(-c3ccco3)nn12 [ZM 241385, 4-(2-[7-Amino-2-(2-furyl)[1,2,4]triazolo[2,3-a][1,3,5]triazin-5-ylamino]ethyl)phenol]
effect on AEA061-mediated inhibition of PMA-stimulated TNF-α production (human monocytes; human monocytes, 15 min pretreatment, AEA061 1 μM, PMA 5 ng/ml): blunted | effect on NECA-mediated inhibition of TNF-α production (human monocytes; human monocytes, 15 min pretreatment, NECA 1 μM, PMA 5 ng/ml): reversed the NECA-mediated inhibition in a dose-dependent manner | PMA-stimulated TNF-α responsiveness in NECA- and AEA061-treated cells (human monocytes; human monocytes, ZM 241385 at 1 μM): restored
